Test results taken from PubChem BioAssay AID1645865 (Buhrlage Lab, Dana-Farber Cancer Institute and Novartis …, 2021).
The source made the active and inactive calls.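 The calls were made as follows: active = maximal inhibition of the USP30 enzyme reaching 30% or more across the dose series; inactive = the rest.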

The compounds below were run against Ubiquitin carboxyl-terminal hydrolase 30 (Homo sapiens) (UniProt Q70CQ3) (assay: inhibitors of ubiquitin-specific protease 30 deubiquitylating enzyme, concentration dependence, in vitro biochemical, validation of primary hits (AID 1645865)). Conditions: purified USP30, Ub-rhodamine cleavage, fluorescence, 2 h.
Sequence of Ubiquitin carboxyl-terminal hydrolase 30 (Homo sapiens) (Q70CQ3 whole entry, looked up): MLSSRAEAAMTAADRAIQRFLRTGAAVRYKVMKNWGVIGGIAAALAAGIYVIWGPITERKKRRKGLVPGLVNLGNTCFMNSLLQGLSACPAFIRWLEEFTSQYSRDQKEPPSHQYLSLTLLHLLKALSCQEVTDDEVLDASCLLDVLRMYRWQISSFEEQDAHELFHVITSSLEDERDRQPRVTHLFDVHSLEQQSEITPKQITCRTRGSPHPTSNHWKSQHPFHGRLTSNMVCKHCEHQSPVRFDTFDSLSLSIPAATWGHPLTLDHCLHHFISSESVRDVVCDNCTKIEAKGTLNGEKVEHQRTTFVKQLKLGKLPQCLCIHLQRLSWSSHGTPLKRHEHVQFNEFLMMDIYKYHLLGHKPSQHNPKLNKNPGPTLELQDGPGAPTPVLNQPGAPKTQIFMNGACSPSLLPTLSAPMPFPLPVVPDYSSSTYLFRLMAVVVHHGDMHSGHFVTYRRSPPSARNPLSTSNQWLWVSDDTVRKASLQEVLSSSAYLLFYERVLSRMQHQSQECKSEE

Row | Compound | IC50
1 | CN(Cc1ccccc1)S(=O)(=O)c1ccc2[nH]cc(C(=O)NCc3cccs3)c(=O)c2c1 | 0.38 µM
2 | O=C(Nc1ccccc1)c1nc2c(s1)CCN(C(=O)c1ccccc1)CC2 | > 50 µM (inactive)
3 | CCOc1ccccc1NC(=O)COc1cc(OC)ccc1C(=O)c1ccccc1 | > 50 µM (inactive)
4 | Cc1cc(C2CC(=O)Nc3c2c(C)nn3-c2nc3ccccc3[nH]2)c(C)s1 (stereo not drawn) | 26.5 µM
5 | Cc1cc(C)cc(-n2cnc3cc(C(=O)NCCC4=CCCCC4)ccc32)c1 | > 50 µM (inactive)
6 | Cc1nc(Nc2c3ccccc3nc3ccccc23)sc1C | > 50 µM (inactive)
7 | O=C(Cn1cc(C(=O)C(F)(F)F)c2ccccc21)N1CCc2ccccc21 | 2.4 µM
8 | Cc1cccc(NC(=O)c2ccn(COc3ccc(F)cc3F)n2)c1C | > 50 µM (inactive)
9 | Cc1ccc(-n2c(-c3ccccc3)cn3c4c(=O)[nH]c(=O)n(C)c4nc23)cc1C | 0.286 µM
10 | COc1ccccc1NC(=O)CSC1=NC2(CCCCC2)Nc2ccccc21 | > 50 µM (inactive)
11 | CCc1nnc(NC(=O)c2nnn(-c3ccccc3Cl)c2C)s1 | > 50 µM (inactive)
12 | O=C(/C=C/c1ccc(F)cc1)N1CCc2ccccc2C1 | > 50 µM (inactive)
13 | O=c1[nH]c(C2CCN(S(=O)(=O)c3ccc(S(=O)(=O)NC4CCCC4)cc3)CC2)nc2c1nnn2Cc1cccc(Cl)c1 | > 50 µM (inactive)
14 | CC1CC(=O)c2c(cc3c(-c4c(O)cc(O)c5c(O)c6c(cc45)OC(C)CC6=O)c(O)cc(O)c3c2O)O1 (stereo not drawn) | > 50 µM (inactive)
15 | COc1ccccc1-c1nc(Cn2nnc(C(=O)Nc3cc(C)cc(C)c3)c2N)c(C)o1 | 39.7 µM
16 | O=C(NCCc1ccccc1F)c1cn2cc(Cl)ccc2n1 | 38.9 µM
17 | Cc1ccc(-c2nc(Cn3cnc4ccccc4c3=O)cs2)cc1 | 4.83 µM
18 | COc1ccc(-c2cc(N3CCC(NC(=O)c4ccccc4)C3)n[nH]2)cc1 (stereo not drawn) | 19.8 µM
19 | CCCCN1CC(C(=O)Nc2ccc(C(=O)Nc3ccc(F)c(Cl)c3)cc2)CC1=O (stereo not drawn) | 47.5 µM
20 | CN[C@H]1CC2(CCN(C(=O)CCCn3cccn3)CC2)OC[C@]1(C)O | > 50 µM (inactive)
21 | CCOC(=O)C1C(c2ccc(Br)cc2)C2(C(=O)c3ccccc3C2=O)C2C=Cc3ccccc3N12 (stereo not drawn) | > 50 µM (inactive)
22 | Cc1nc2cccnc2n1C1CCN(C(=O)c2cc3cc(Cl)ccc3[nH]2)C1 (stereo not drawn) | > 50 µM (inactive)
23 | O=S(=O)(Nc1ccc(O)cc1)c1ccc2oc3ccc(S(=O)(=O)Nc4ccc(O)cc4)cc3c2c1 | 26.5 µM

Row | Compound | IC50
24 | Cn1c(COc2ccccc2)nnc1SCC(=O)Nc1ccc(N2CCOCC2)cc1 | 20 µM
25 | CCn1c(COc2cccc(C(F)(F)F)c2)nnc1SCc1ccc(Cl)cc1 | 15.9 µM
26 | Cc1ccc(CNC(=O)Cn2cnc3c(cnn3-c3cccc(Cl)c3)c2=O)cc1 | 1.15 µM
27 | CC(=O)CN1CC2(CCN(Cc3ccc(F)cc3)CC2)COc2ccccc2S1(=O)=O | > 50 µM (inactive)
28 | Cc1ccc(NC(=O)c2ccc3nn(CC(=O)Nc4ccc(F)cc4F)c(=O)n3c2)cc1 | 2.43 µM
29 | COc1ccc(CNC(=O)c2ccccc2N2C(=O)N3CCc4c([nH]c5ccccc45)[C@@]3(C)C2=O)cc1 | 27.3 µM
30 | CC(CCc1ccccc1)NC(=O)C(=O)c1cn(CC(=O)N2CCOCC2)c2ccccc12 (stereo not drawn) | > 50 µM (inactive)
31 | O=C(Nc1ccc2c(c1)N(C(=O)C1CCCC1)CC2)c1c(F)cccc1F | 24.2 µM
32 | COc1ccc(-n2nnc(C(=O)Nc3ccccc3)c2N)cc1 | > 50 µM (inactive)
33 | O=C(Cc1cccs1)Nc1cc(F)c2nc(N3CCOCC3)ccc2c1 | > 50 µM (inactive)
34 | CC1=C(C)C(N(c2ccccc2)c2ccccc2)N(CCC(C)C)C1=O (stereo not drawn) | 36.1 µM
35 | Cc1noc(-c2cccn(Cc3cccc(C(F)(F)F)c3)c2=O)n1 | > 50 µM (inactive)
36 | COc1ccc(N(CC(=O)Nc2cccc(F)c2)S(=O)(=O)c2ccc(OC)c(OC)c2)cc1 | 17.6 µM
37 | Cc1c2c(nc3ccccc13)-c1ccccc1CC2 | > 50 µM (inactive)
38 | Cc1ccc2c(c1)-c1c(c(C(=O)N3CCN(c4ccccc4)CC3)nn1C)CS2 | > 50 µM (inactive)
39 | Cc1ccc(NC2=NC(c3ccco3)n3c(nc(C)cc3=O)N2)c(C)c1 (stereo not drawn) | 2.87 µM
40 | COc1ccc(-c2cc3nc(C)cc(Nc4ccc(F)cc4)n3n2)cc1OC | > 50 µM (inactive)
41 | O=C1Cc2ccccc2C(=O)N1c1ccc2c(c1)OCO2 | > 50 µM (inactive)
42 | CCCc1nc2sc3c(NCCN4CCOCC4)ncnc3c2c2c1CCC2 | > 50 µM (inactive)
43 | COc1cc2c(c3oc4cccc(O)c4c(=O)c13)C1C=COC1O2 (stereo not drawn) | > 50 µM (inactive)
44 | Cc1ccc2c(Nc3ccc(CC(=O)O)cc3)c(C(=O)N3CCCC3)cnc2n1 | > 50 µM (inactive)
45 | CCOc1ccc(NC(=O)Cn2c(=O)n(CC(=O)NCc3ccc(C)cc3)c(=O)c3sccc32)cc1 | 0.465 µM
46 | COc1c2n(c3ccccc13)[C@@]1(O)C(=O)N(C)C(=O)[C@@]1(O)c1c-2n(C)c2ccc(Cl)cc12 | > 50 µM (inactive)

Row | Compound | IC50
47 | O=C(NCc1ccc(-c2nc3cnccc3o2)cc1)c1cc2ccccc2o1 | 2.99 µM
48 | COc1ccc(C2CC(=O)Nc3n[nH]c(-c4ccccc4)c32)cc1OC (stereo not drawn) | 18.8 µM
49 | COc1ccc(NC(=O)Cn2c(CS(=O)(=O)c3ccc(C)cc3)nc3ccccc32)cc1 | 7.12 µM
50 | Cc1ccc2c(C)nc(Nc3ncc4c(n3)CC(c3ccco3)CC4=O)nc2c1 (stereo not drawn) | < 0.05 µM
51 | CC(C)NS(=O)(=O)c1cccc2c(NC(=O)C(Cc3ccccc3)NC(=O)c3ccccc3)cccc12 (stereo not drawn) | < 0.05 µM
52 | Cc1cccc2sc(NC(=O)c3nnn(-c4ccc(F)cc4)n3)nc12 | > 50 µM (inactive)
53 | COc1ccc(-c2nc3n(n2)C(c2cccc(O)c2)C2=C(CCCC2=O)N3)cc1 (stereo not drawn) | 38.2 µM
54 | COC(=O)c1cc(C)sc1NC(=O)c1cccc(OC)c1OC | > 50 µM (inactive)
55 | CCOC(=O)c1cc2c(ccn2C)n1CC(=O)N1CCC(C)CC1 | > 50 µM (inactive)
56 | Cc1ccc(-c2nc(Cn3nnc(-c4nc(-c5ccccn5)no4)c3C)c(C)o2)cc1 | > 50 µM (inactive)
57 | O=c1[nH]cccc1NS(=O)(=O)c1ccc(F)cc1 | > 50 µM (inactive)
58 | CC(C)Cc1cc(-c2nnc3sc(-c4ccco4)nn23)n[nH]1 | > 50 µM (inactive)
59 | COc1cc2c(oc(=O)c3cc(C)cc(OC)c32)c2c([C@@H]3OC(C)[C@@H](O)[C@@](C)(O)C3O)ccc(O)c12 (stereo partly drawn) | > 50 µM (inactive)
60 | COc1ccc(-c2nc(C)c(C(=O)NCc3ccc(S(N)(=O)=O)cc3)s2)cc1 | > 50 µM (inactive)
61 | O=C(Nc1cccc(-c2nc3ccccc3[nH]2)c1)c1cc2ccccc2oc1=O | 0.304 µM
62 | Cc1cc(C(=O)N2CCOC3(CC=CCN(CCc4ccccc4)C3=O)C2)n2nccc2n1 (stereo not drawn) | > 50 µM (inactive)
63 | COc1ccc(COc2ccc3c(C)c(CC(=O)N4CC[C@@]5(O)CCCC[C@H]5C4)c(=O)oc3c2)cc1 | 2.22 µM
64 | O=C(NC1(O)C(=O)c2ccccc2C1=O)c1ccc(-c2csnn2)cc1 | 32.1 µM
65 | CO/C=C/C(=O)c1cc2cnc3c(=N)cc(NC(C)=O)c([nH]1)c23 | > 50 µM (inactive)
66 | C/C1=C/C=C/[C@H](C)[C@H](O)[C@@H](C)[C@@H](O)[C@@H](C)[C@H](O)[C@H](C)[C@@H](O)[C@@H](C)/C=C(/C)C(=O)c2c(O)c(C)cc3c2C(=O)C=C(NC1=O)C3=O | > 50 µM (inactive)
67 | COc1ccccc1CNC(=O)C1CCCN(c2nc3ccsc3c(=O)s2)C1 (stereo not drawn) | 3.45 µM
68 | CC(C)(C)C(=O)C1C2C(=O)N(c3ccc4c(c3)OCO4)C(=O)C2C2c3ccccc3C=CN12 (stereo not drawn) | > 50 µM (inactive)
